According to patent US7223865B2, “Chromogenic compounds, and use thereof as enzyme substrates” (Biomerieux, priority 2003, dated 2007):

What was measured:
Type in all cases: cell-based
[1] = test system: Escherichia coli (NCTC 14018); assay: pyroglutamine-aminopeptidase activity on gelled medium, Example 9; set-up: key to growth: ++ means good growth; + means moderate growth; +/− means poor growth; NG means no growth
Protocol: (§1) A gelled medium comprising this substrate is prepared as follows: 30 mg of each substrate are dissolved (heating) in 10 ml of sterile distilled water. Ten ml of this solution are then added to 90 ml of Columbia agar kept molten at 50° C.
(§2) Various strains of microorganisms derived from the NCTC collection (National Collection of Type Cultures, Colindale, UK) were seeded onto the media thus obtained according to the multipoint inoculation described in example 8 above.
(§3) The colonies formed were examined visually after incubation for 24 h and 48 h. The color and the growth of these colonies were noted.

[2] = test system: Serratia marcescens (NCTC 10211); assay: as above; set-up: key to growth: ++ means good growth; + means moderate growth; +/− means poor growth; NG means no growth
Protocol: as §1, §2, §3

[3] = test system: Escherichia coli 0157 (NCTC 12079); assay: as above; set-up: key to growth: ++ means good growth; + means moderate growth; +/− means poor growth; NG means no growth
Protocol: as §1, §2, §3

[4] = test system: Pseudomonas aeruginosa (NCTC 10662); assay: as above; set-up: key to growth: ++ means good growth; + means moderate growth; +/− means poor growth; NG means no growth
Protocol: as §1, §2, §3

[5] = test system: Klebsiella pneumonia (NCTC 10896); assay: as above; set-up: key to growth: ++ means good growth; + means moderate growth; +/− means poor growth; NG means no growth
Protocol: as §1, §2, §3

[6] = test system: Enterobacter cloacae (NCTC 11936); assay: as above; set-up: key to growth: ++ means good growth; + means moderate growth; +/− means poor growth; NG means no growth
Protocol: as §1, §2, §3

[7] = test system: Burkholderia cepacia (NCTC 10743); assay: as above; set-up: key to growth: ++ means good growth; + means moderate growth; +/− means poor growth; NG means no growth
Protocol: as §1, §2, §3

[8] = test system: Salmonella poona (NCTC 4840); assay: as above; set-up: key to growth: ++ means good growth; + means moderate growth; +/− means poor growth; NG means no growth
Protocol: as §1, §2, §3

[9] = test system: Salmonella typhimurium (NCTC 74); assay: as above; set-up: key to growth: ++ means good growth; + means moderate growth; +/− means poor growth; NG means no growth
Protocol: as §1, §2, §3

[10] = test system: Shigella sonnei (NCTC 9774); assay: as above; set-up: key to growth: ++ means good growth; + means moderate growth; +/− means poor growth; NG means no growth
Protocol: as §1, §2, §3

Enterococcus faecalis = assay: L-alanine-aminopeptidase activity on gelled medium, Example 1; conditions: 0.3 g/l, 24 hours
Protocol: (§4) A gelled medium comprising L-alanyl-9-(4-amino-styryl)acridine (hereinafter referred to as L-Ala-4-ASA) or L-alanyl-aminophenylacridine (hereinafter referred to as L-Ala-APA) is prepared as follows: 46.37 g of Columbia agar are added to 1 liter of distilled water and then autoclaved. This reaction medium is separated into two media of equivalent volume. Each of these media comprises, respectively: 0.3 g/l of L-Ala-4-ASA provided by means of the stock solution in DMSO, and 0.3 g/l of L-Ala-APA also provided by means of a stock solution in DMSO.
(§5) Microorganisms derived from the applicant's collection were seeded onto each of the media, by delimitation as three dials, using a suspension at 0.5 McFarland. The dishes were incubated at 37° C. for 24 hours. The colonies formed were examined visually after incubation for 24 hours. The color of these colonies was noted before and after addition of a drop of hydrochloric acid.

Candida albicans = assay: as above; conditions: 0.3 g/l, 24 hours
Protocol: as §4, §5

Citrobacter koseri = assay: as above; conditions: 0.3 g/l, 24 hours
Protocol: as §4, §5

Staphylococcus aureus = assay: as above; conditions: 0.3 g/l, 24 hours
Protocol: as §4, §5

Escherichia coli = assay: as above; conditions: 0.3 g/l, 24 hours
Protocol: as §4, §5

Listeria innocua = assay: as above; conditions: 0.3 g/l, 24 hours
Protocol: as §4, §5

Proteus mirabilis = assay: as above; conditions: 0.3 g/l, 24 hours
Protocol: as §4, §5

Enterobacter cloacae = assay: as above; conditions: 0.3 g/l, 24 hours
Protocol: as §4, §5

Streptococcus agalactiae = assay: as above; conditions: 0.3 g/l, 24 hours
Protocol: as §4, §5

Klebsiella pneumoniae = assay: as above; conditions: 0.3 g/l, 24 hours
Protocol: as §4, §5

## C[n+]1c2ccccc2c(-c2ccc(NC(=O)C3CCC(=O)N3)cc2)c2ccccc21.[Cl-] (centres unmarked) [PG-4-AP-10-MA, pyroglutamyl-9-(4-aminophenyl)-10-methyl-acridine]
[1]; 24 h
  color of colonies: Colorless
  growth: ++
[1]; 48 h
  color of colonies: Colorless
  growth: ++
[2]; 24 h
  color of colonies: Colorless
  growth: ++
[2]; 48 h
  color of colonies: Pale orange
  growth: ++
[3]; 24 h
  color of colonies: Colorless
  growth: ++
[3]; 48 h
  color of colonies: Colorless
  growth: ++
[4]; 24 h
  color of colonies: Colorless
  growth: ++
[4]; 48 h
  color of colonies: Orange
  growth: ++
[5]; 24 h
  color of colonies: Colorless
  growth: ++
[5]; 48 h
  color of colonies: Pale orange
  growth: ++
[6]; 24 h
  color of colonies: Colorless
  growth: ++
[6]; 48 h
  color of colonies: Pale orange
  growth: ++
[7]; 24 h
  color of colonies: Colorless
  growth: ++
[7]; 48 h
  color of colonies: Pale orange
  growth: ++
[8]; 24 h
  color of colonies: Colorless
  growth: ++
[8]; 48 h
  color of colonies: Colorless
  growth: ++
[9]; 24 h
  color of colonies: Colorless
  growth: ++
[9]; 48 h
  color of colonies: Colorless
  growth: ++
[10]; 24 h
  color of colonies: Colorless
  growth: ++
[10]; 48 h
  color of colonies: Colorless
  growth: ++

## C[C@H](N)C(=O)Nc1ccc(-c2c3ccccc3nc3ccccc23)cc1 [L-Ala-APA]
Enterococcus faecalis; with HCl
  color of colonies: colorless
Enterococcus faecalis; without HCl
  color of colonies: colorless
Candida albicans; with HCl
  color of colonies: Colorless
Candida albicans; without HCl
  color of colonies: colorless
Citrobacter koseri; with HCl
  color of colonies: mauve
Citrobacter koseri; without HCl
  color of colonies: colorless
Staphylococcus aureus; with HCl
  color of colonies: colorless
Staphylococcus aureus; without HCl
  color of colonies: colorless
Escherichia coli; with HCl
  color of colonies: pale mauve
Escherichia coli; without HCl
  color of colonies: colorless
Listeria innocua; with HCl
  color of colonies: colorless
Listeria innocua; without HCl
  color of colonies: colorless
Proteus mirabilis; with HCl
  color of colonies: very pale-
Proteus mirabilis; without HCl
  color of colonies: colorless
Enterobacter cloacae; with HCl
  color of colonies: mauve
Enterobacter cloacae; without HCl
  color of colonies: colorless
Streptococcus agalactiae; with HCl
  color of colonies: colorless
Streptococcus agalactiae; without HCl
  color of colonies: colorless
Klebsiella pneumoniae; with HCl
  color of colonies: mauve
Klebsiella pneumoniae; without HCl
  color of colonies: colorless

## C[C@H](N)C(=O)Nc1ccc(C=Cc2c3ccccc3nc3ccccc23)cc1 [L-Ala-4-ASA, L-alanyl-9-(4-aminostyryl)acridine]
Enterococcus faecalis; with HCl
  color of colonies: colorless
Enterococcus faecalis; without HCl
  color of colonies: colorless
Candida albicans; with HCl
  color of colonies: colorless
Candida albicans; without HCl
  color of colonies: colorless
Citrobacter koseri; with HCl
  color of colonies: gray-mauve
Citrobacter koseri; without HCl
  color of colonies: colorless
Staphylococcus aureus; with HCl
  color of colonies: colorless
Staphylococcus aureus; without HCl
  color of colonies: colorless
Escherichia coli; with HCl
  color of colonies: gray-mauve
Escherichia coli; without HCl
  color of colonies: colorless
Listeria innocua; with HCl
  color of colonies: colorless
Listeria innocua; without HCl
  color of colonies: colorless
Proteus mirabilis; with HCl
  color of colonies: gray-mauve
Proteus mirabilis; without HCl
  color of colonies: colorless
Enterobacter cloacae; with HCl
  color of colonies: gray-mauve
Enterobacter cloacae; without HCl
  color of colonies: colorless
Streptococcus agalactiae; with HCl
  color of colonies: colorless
Streptococcus agalactiae; without HCl
  color of colonies: colorless
Klebsiella pneumoniae; with HCl
  color of colonies: gray-mauve
Klebsiella pneumoniae; without HCl
  color of colonies: colorless
